Measurements from paper PMC9106035, “Synthesis, X-ray Structure and Biological Studies of New Self-Assembled Cu(II) Complexes Derived from s-Triazine Schiff Base Ligand” (Molecules, 2022).

Assays:
[1] = tested on: lung carcinoma A-549 cell line; assay: Anticancer activity, MTT viability assay; type: cell-based; settings: for Inhibitory % / Viability %: A-549, Table S8
Protocol: The studied compounds were examined for their anticancer activity against the lung carcinoma A-549 cell line.
(§1) Method S4 Evaluation of Cytotoxic activity
(§2) The cells were propagated in Dulbecco’s modified Eagle’s medium (DMEM) supplemented with 10% heat-inactivated fetal bovine serum, 1 % L-glutamine, HEPES buffer and 50µg/mL Gentamycin. All cells were maintained at 37 °C in a humidified atmosphere with 5% CO2 and were subcultured tw o times a week.
(§3) Cytotoxicity evaluation using viability assay
(§4) For cytotoxicity assay, the cells were seeded in 96-well plate at a cell concentration of 1×10^4 cells per well in 100µl of growth medium. Fresh medium containing different concentrations of the test sample was added after 24 h of seeding. Serial two-fold dilutions of the tested chemical compound were added to confluent cell monolayers dispensed into 96-well, flat-bottomed microtiter plates (Falcon, NJ, USA) using a multichannel pipette. The microtiter plates were incubated at 37 °C in a humidified incubator with 5% CO2 for a period of 24 h. Three wells were used for each concentration of the test sample. Control cells were incubated without test sample and with or without DMSO. The little percentage of DMSO present in the […]
(§5) cells for at 37°C, for 24 h, the viabl e cells yield was determined by the MTT test.
(§6) Briefly, the media was removed from the 96 well plate and replaced with 100 µL of fresh culture DMEM m edium without phenol red then 10 µL of the 12 mM MTT stock solution (5 mg of MTT in 1 mL of PBS) to each well including the untreated controls. The 96 well plates were then incubated at 37°C and 5% CO2 for 4 hours. An 85 µL aliquot of the media was removed from t he wells, and 50 µL of DMSO was added to each well and mixed thoroughly with the pipette and incubated at 37°C for 10 min. Then, the optical density was measured at 590 nm with the microplate reader (SunRise, TECAN, Inc, USA) to determine the number of viable cells and the percentage of viability was calculat ed as [(ODt/ODc)]x100% where ODt i s the mean optical density of wells treated with the tested s ample and ODc is the mean optical density of untreated cells. The relation between surviving cells and drug concentration is plotted to get the survival curve of each tumor cell line after treatment with the specified compound. The 50% inhibitory concentration (IC50), the concentration required to cause t oxic effects in 50% of intact cells, was estimated from graphic plots of the dose response curve for each conc. using Graphpad Prism software (San Diego, […]

[2] = tested on: normal human lung fibroblast MRC-5 cells; assay: Cytotoxic activity on normal cells, MTT viability assay; type: cell-based; settings: for Inhibitory % / Viability %: MRC-5, Table S13
Protocol: In this regard, the selectivity index (SI) was calculated as the ratio of cytotoxic effect on the normal cell line to the cytotoxic effect on the cancer cell line.
as §1, §2, §3, §4, §5, §6

[3] = DPPH radical scavenging assay; type: biochemical
Protocol: The studied Cu(II) complexes and the free ligands were assessed for their antioxidant activity levels using an α,α-diphenyl-β-picrylhydrazyl (DPPH) scavenging assay, and the results are given in Table 7. […] The results indicated better antioxidant activity for DMAT than for DMOHT, indicating the effect of the substituent at the phenyl moiety on the antioxidant activity level of the free ligand. […] On the other hand, the Cu(II) complexes have improved levels of antioxidant activity compared to the free ligands.
Method S3 DPPH Radical Scavenging Activity:
Freshly prepared (0.004 %w/v) methanol solution of 2,2-diphenyl-1-pi crylhydrazyl (DPPH) radical was prepared and stored at 10 °C in dark place. A methanolic solution of the test compound was prepared using the same procedure. A 40 uL aliquot of the methanol solution was added to 3mL of DPPH solution. Absorbance measurements were recorded immediately with a UV-visible spectrophotometer (Milton Roy, Spectronic 1201). The decrease in absorbance at 515 nm was determined continuously, with data being recorded at 1 min intervals until the absorbance stabilized (16 min). The absorbance of the DPPH radical without antioxidant (control) and the reference compound ascorbic acid were also measured.
All the determinations were performed in three replicates and averaged. The percentage inhibition (PI) of the DPPH radical was calculated according to the […]
PI = [{(AC- AT)/ AC} x 100] (1)
Where AC = Absorbance of the control at t = 0 min and AT = absorbance of the sample+DPPH at t = 16 min. The 50% inhibitory concentration (IC50), the concentration required t o inhibit DPPH radical by 50%, was estimated from graphic plots of the dose respons e curve.

Which results are given for `CC(=NNc1nc(N2CCOCC2)nc(N2CCOCC2)n1)c1ccccc1[O-].CC(=O)[O-].[Cu+2]` [Complex 2, [Cu(DMOT)(CH3COO)]]?
Inhibitory % ([1]; sample conc. 1.9 µM): 0%; Viability % ([1]; sample conc. 1.9 µM): 100%; Inhibitory % ([1]; sample conc. 3.8 µM): 2.84%; Viability % ([1]; sample conc. 3.8 µM): 97.16%; Inhibitory % ([1]; sample conc. 7.5 µM): 10.59%; Viability % ([1]; sample conc. 7.5 µM): 89.41%; Inhibitory % ([1]; sample conc. 15.0 µM): 21.88%; Viability % ([1]; sample conc. 15.0 µM): 78.12%; Inhibitory % ([1]; sample conc. 29.9 µM): 40.57%; Viability % ([1]; sample conc. 29.9 µM): 59.43%; Inhibitory % ([1]; sample conc. 60.0 µM): 58.63%; Viability % ([1]; sample conc. 60.0 µM): 41.37%; Inhibitory % ([1]; sample conc. 120.0 µM): 71.3%; Viability % ([1]; sample conc. 120.0 µM): 28.70%; Inhibitory % ([1]; sample conc. 239.9 µM): 83.57%; Viability % ([1]; sample conc. 239.9 µM): 16.43%; Inhibitory % ([1]; sample conc. 479.8 µM): 92.15%; Viability % ([1]; sample conc. 479.8 µM): 7.85%; Inhibitory % ([1]; sample conc. 959.6 µM): 96.38%; Viability % ([1]; sample conc. 959.6 µM): 3.62%; SI = CC50/IC50 ([1]; CC50 (MRC-5) / IC50 (A-549)): 0.72; Inhibitory % ([2]; sample conc. 1.9 µM): 0%; Viability % ([2]; sample conc. 1.9 µM): 100%; Inhibitory % ([2]; sample conc. 3.8 µM): 0%; Viability % ([2]; sample conc. 3.8 µM): 100%; Inhibitory % ([2]; sample conc. 7.5 µM): 1.29%; Viability % ([2]; sample conc. 7.5 µM): 98.71%; Inhibitory % ([2]; sample conc. 15.0 µM): 7.13%; Viability % ([2]; sample conc. 15.0 µM): 92.87%; Inhibitory % ([2]; sample conc. 29.9 µM): 13.76%; Viability % ([2]; sample conc. 29.9 µM): 86.24%; Inhibitory % ([2]; sample conc. 60.0 µM): 32.82%; Viability % ([2]; sample conc. 60.0 µM): 67.18%; Inhibitory % ([2]; sample conc. 120.0 µM): 57.65%; Viability % ([2]; sample conc. 120.0 µM): 42.35%; Inhibitory % ([2]; sample conc. 239.9 µM): 72.02%; Viability % ([2]; sample conc. 239.9 µM): 27.98%; Inhibitory % ([2]; sample conc. 479.8 µM): 84.79%; Viability % ([2]; sample conc. 479.8 µM): 15.21%; Inhibitory % ([2]; sample conc. 959.6 µM): 94.26%; Viability % ([2]; sample conc. 959.6 µM): 5.74%; CC50 ([2]; MRC-5 cells, 24 h, MTT): 101 µM; DPPH Scavenging % ([3]; Conc. 2.5 μg/mL): 9.39%; DPPH Scavenging % ([3]; Conc. 5 μg/mL): 17.66%; DPPH Scavenging % ([3]; Conc. 10 μg/mL): 36.52%; DPPH Scavenging % ([3]; Conc. 20 μg/mL): 49.08%; DPPH Scavenging % ([3]; Conc. 40 μg/mL): 67.84%; DPPH Scavenging % ([3]; Conc. 80 μg/mL): 78.62%; DPPH Scavenging % ([3]; Conc. 160 μg/mL): 83.14%; DPPH Scavenging % ([3]; Conc. 320 μg/mL): 88.03%; DPPH Scavenging % ([3]; Conc. 640 μg/mL): 92.15%; DPPH Scavenging % ([3]; Conc. 1280 μg/mL): 94.54%; IC50 (DPPH scavenging) ([3]; antioxidant activity): 20.93 ± 0.91 mg/L
